Legend:
Assay type in all cases: in vivo
souris [1] = assay: Global behaviour and reactivity, mouse
Method: (§1) On a résumé ci-après les résultats des essais qui ont été entrepris chez l'animal avec le CRL 40914, ce produit étant administré, sauf indications contraires, en solution dans l'eau (à pH 5) par voie intrapéritonéale sous un volume de 20 ml/kg chez la souris mâle et de 5 ml/kg chez le rat mâle.
Des lots de 3 animaux sont observés avant, puis 15 min, 30 min, 1 h, 2 h, 3 h et 24 h après l'administration de CRL 40914. On observe ce qui suit:
(§2) On a résumé ci-après les résultats des essais qui ont été entrepris chez l'animal avec le CRL 40915, les modalités opératoires étant celles données ci-dessus pour le CR L 40914.

souris [2] = assay: Behavioural despair (immobility in water); details: souris en immersion, dès 4 mg/kg i.p.; effet particulièrement net à 64 mg/kg
Source text: Une demi-heure après avoir reçu le CRL 40914 ou la désipramine, des lots de 10 souris sont plongés dans un bécher rempli d'eau sur une hauteur de 6 cm. On note la durée d'immobilité de la souris entre la 2ème et la 6ème min suivant son immersion.

rats = assay: Search for stereotyped movements; details: rat
Method: Des lots de 6 rats reçoivent une injection intrapéritonéale de CRL 40914 ou d'amphétamine puis sont immédiatement placés dans des boîtes de petites dimensions où leur comportement stéréotypé est coté de 0 à 3 toutes les 10 min jusqu'à extinction de l'effet.

souris [3] = assay: Action on rectal temperature
Method: as §1
Des lots de 6 souris reçoivent le CRL 40914; la température rectale est notée toutes les 30 min.

souris [4] = assay: Interaction with oxotremorine; details: oxotrémorine 0,5 mg/kg i.p.
Method: Le CRL 40914 est administré à des lots de 6 souris une demi-heure avant l'injection intrapéritonéale de 0,5 mg/kg d'oxotrémorine.
as §2

souris mâle = assay: Action on intergroup aggressiveness
Method: Cet effet pourrait résulter de la sédation qui se manifeste à faible dose (4 mg/kg) et de l'excitation motrice qui se manifeste à forte dose (64 mg/kg).

[5] = souris, 0,25 mg/kg, 1 mg/kg, 4 mg/kg et 16 mg/kg i.p.

Question: CCN1CCOC(c2ccccc2)C1 (centres unmarked) [CRL 40914, Chlorhydratede 2-phényl-4-éthyl-morpholine] was tested. Which mydriase (souris [1]; 2 mg/kg i.p.) did it give?
Answer: mydriase pendant 1 h

Question: What about the sédation (souris [1]; 2 mg/kg i.p.) of the same compound?
Answer: sédation pendant 30 à 60 min

Question: What about the hypothermie (souris [1]; 2 mg/kg i.p., pendant 1 à 2 h) of the same compound?
Answer: -3,6 °C

Question: And the mydriase (souris [1]; 4 mg/kg i.p.)?
Answer: mydriase pendant 1 heure

Question: What about the sédation (souris [1]; 4 mg/kg i.p.) of the same compound?
Answer: sédation pendant 30 à 60 min

Question: And the hypothermie (souris [1]; 4 mg/kg i.p., pendant 1 h)?
Answer: -2,2 °C

Question: And the excitation (souris [1]; 16 mg/kg i.p.)?
Answer: excitation pendant 30 min suivie d'une hyporéactivité au toucher

Question: And the lacrymation (souris [1]; 16 mg/kg i.p.)?
Answer: lacrymation pendant 1 h

Question: And the mydriase (souris [1]; 16 mg/kg i.p.)?
Answer: mydriase pendant 1 h

Question: And the hypothermie (souris [1]; 16 mg/kg i.p., pendant 2 à 3 h)?
Answer: -2,8 °C

Question: And the excitation (souris [1]; 64 mg/kg i.p.)?
Answer: excitation pendant 1 à 2 h avec manifestation de mouvements stéréotypés

Question: And the mydriase (souris [1]; 64 mg/kg i.p.)?
Answer: mydriase pendant 1 h

Question: What about the “piloérection, salivation et lacrymation” value (souris [1]; 64 mg/kg i.p.) of the same compound?
Answer: piloérection, salivation et lacrymation pendant 1 h

Question: And the polypnée (souris [1]; 64 mg/kg i.p.)?
Answer: polypnée pendant 2 h

Question: What about the “durée d'immobilité” value (souris [2]) of the same compound?
Answer: diminue la durée d'immobilité

Question: And the “mouvements stéréotypés” value (rats; 32 mg/kg i.p.)?
Answer: ne provoque pas de stéréotypies

Question: What about the “mouvements stéréotypés” value (rats; 64 mg/kg i.p.) of the same compound?
Answer: mouvements stéréotypés d'intensité et de durée comparables à ceux observés après administration de 1 mg/kg d'amphétamine

Question: And the “mouvements stéréotypés” value (rats; 128 mg/kg i.p.)?
Answer: cet effet est encore plus net

Question: What about the “durée de l'hypothermie” value (souris [3]; [5]) of the same compound?
Answer: 90 à 120 min

Question: And the température rectale (souris [3]; [5])?
Answer: hypothermie maximale après 30 min

Question: What about the température rectale (souris [3]; souris, 64 mg/kg i.p.) of the same compound?
Answer: hyperthermie qui apparaît à 30 min et qui fait ensuite place à une hypothermie modérée

Question: What about the “effet hypothermisant de l'oxotrémorine” value (souris [4]; 16 mg/kg et 64 mg/kg i.p.) of the same compound?
Answer: combat l'effet hypothermisant

Question: What about the “tremblements dus à l'oxotrémorine” value (souris [4]; 64 mg/kg i.p.) of the same compound?
Answer: diminue l'intensité des tremblements

Question: And the “signes de stimulation cholinergique périphérique provoqués par l'oxotrémorine” value (souris [4])?
Answer: laisse inchangés les signes de stimulation cholinergique périphériques

Question: What about the “combats (agressivité intergroupe)” value (souris mâle; 4 mg/kg) of the same compound?
Answer: supprime les combats entre les souris de 2 groupes différents

Question: What about the “durée de contact entre les souris (agressivité intergroupe)” value (souris mâle; 64 mg/kg) of the same compound?
Answer: diminue la durée de contact entre les souris

From EP0080940B1, “Derivatives of 2-phenyl-morpholine and medical compositions” (LABORATOIRE L. LAFON Société anonyme dite:, priority 1981, dated 1983)
